In general, IC50 refers to the concentration needed to halve the response being measured. The low end stands for inhibition by little substance, the high end for a need for much substance.

From patent US10023592B2, “Bromodomain inhibitors” (Celgene Quanticel Research, Inc., priority 2013, dated 2018) come the findings set out here.

SMILES strings stand for the structures. Where only a bound is given, the exact number is not on record here.

For experiment [1], the system named is HL-60, human proleukemia cells. The experiment in a line: Cell-MTS proliferation assay, HL-60. It counts as cell-based. Conditions: Homo sapiens, 168 hr. The procedure, abridged:
(§1)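 Seeded for ~90% confluence at 7 days (Raji 15,000, HL-60 5,000, NCI-H460 3,000 cells/well); compound added 24 h post-plating as 11-point dilution, 100 μM to 2.0 nM final.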

Experiment [2] relates to Raji, human Burkitts lymphoma cells. The experiment in a line: Cell-MTS proliferation assay, Raji. The class given is cell-based. Conditions: Homo sapiens, 168 hr. The procedure, abridged: as §1
Background: Tetrazolium assays rely on reduction of a dye to a coloured formazan, in cell work by metabolically active cells.

Experiment [3] relates to NCI-H460, human non-small cell lung cancer cells. The experiment in a line: Cell-MTS proliferation assay, NCI-H460. It counts as cell-based. Conditions: Homo sapiens, 168 hr. The procedure, abridged:
as §1

The target of experiment [4] is BRD4(BD1) (Homo sapiens (Human), UniProt O60885). Briefly: In vitro enzyme inhibition assay (BRD4 AlphaScreen). It counts as binding. The procedure, abridged: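 His-tagged BRD4 tested by AlphaScreen for binding of biotinylated H4K5/8/12/16-tetraacetyl peptide. After 20 min at room temperature, streptavidin donor and nickel chelate acceptor beads added (5 μg/mL final each). IC50 determined.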
On the technique in general: Alpha assays give light when donor and acceptor beads are brought close together.

Setting [5] is: NCI-H460, Cell-MTS proliferation.
Setting [6] is: in vitro enzyme inhibition assay.
Setting [7] is: Cell-MTS proliferation, HL-60 cells.
[8] abbreviates: Cell-MTS proliferation, Raji cells.
[9] abbreviates: Cell-MTS proliferation, NCI-H460 cells.
[10] abbreviates: HL-60, Cell-MTS, class symbols A/B/C.
[11] abbreviates: Raji, Cell-MTS, class symbols A/B/C.
The mark [12] stands for this setting: NCI-H460, Cell-MTS, class symbols A/B/C.

For `CCc1ccc(S(C)(=O)=O)cc1-c1ccc(=O)n(C)c1` [Example 312, 5-(2-ethyl-5-methylsulfonylphenyl)-1-methylpyridin-2-one], the IC50 in experiment [1] (HL-60, Cell-MTS proliferation) is more than 5 µM; in experiment [2] (Raji, Cell-MTS proliferation), more than 5 µM; in experiment [3] (setting [5]), more than 5 µM; in experiment [4] (setting [6]) it was 0.5 to 5 µM.

For `Cn1cc(-c2cc(CS(C)(=O)=O)ccc2OCC(F)(F)F)n2cncc2c1=O` [Example 370, 7-methyl-5-[5-(methylsulfonylmethyl)-2-(2,2,2-trifluoroethoxy)phenyl] imidazo[1,5-a]pyrazin-8-one], the IC50 in experiment [1] (HL-60, Cell-MTS proliferation) was 0.5 to 5 µM; in experiment [2] (Raji, Cell-MTS proliferation), 0.5 to 5 µM; in experiment [3] (setting [5]), more than 5 µM; in experiment [4] (setting [6]), less than 0.5 µM.

Consider `CCS(=O)(=O)Nc1ccc(Oc2ccc(F)cc2F)c(-c2cn(C)c(=O)c3oc(C)cc23)c1` [Example 269, N-[4-(2,4-difluorophenoxy)-3-(2,6-dimethyl-7-oxofuro[2,3-c]pyridin-4-yl)phenyl]ethanesulfonamide], for which the 50% inhibitory concentration (IC50) in experiment [1] (HL-60, Cell-MTS proliferation) is less than 0.5 µM; in experiment [2] (Raji, Cell-MTS proliferation) it was less than 0.5 µM; in experiment [3] (setting [5]), more than 5 µM; in experiment [4] (setting [6]), less than 0.5 µM.

On to `Cn1cc(-c2ccc3c(=O)n(C)cc(-c4nc(NS(C)(=O)=O)ncc4OCC4CC4)c3c2)cn1` [Example 154, N-[5-(cyclopropylmethoxy)-4-[2-methyl-6-(1-methylpyrazol-4-yl)-1-oxoisoquinolin-4-yl]pyrimidin-2-yl]methanesulfonamide], for which the IC50 in experiment [1] (HL-60, Cell-MTS proliferation) is less than 0.5 µM; in experiment [2] (Raji, Cell-MTS proliferation), less than 0.5 µM; in experiment [3] (setting [5]), more than 5 µM; in experiment [4] (setting [6]), less than 0.5 µM.

Turning to `CCCCc1cnc(NS(=O)(=O)CC)nc1-c1cn(C)c(=O)c2ccccc12` [Example 309, N-[5-butyl-4-(2-methyl-1-oxoisoquinolin-4-yl)pyrimidin-2-yl] ethanesulfonamide], the IC50 in experiment [1] (HL-60, Cell-MTS proliferation) was less than 0.5 µM; in experiment [2] (Raji, Cell-MTS proliferation) it was less than 0.5 µM; in experiment [3] (setting [5]), more than 5 µM; in experiment [4] (setting [6]), less than 0.5 µM.

For `CCS(=O)(=O)c1ccc(OCC2CC2)c(-c2cc(C3CC3)c(=O)n(C)c2)c1` [Example 280, 3-cyclopropyl-5-[2-(cyclopropylmethoxy)-5-ethylsulfonylphenyl]-1-methylpyridin-2-one], the IC50 in experiment [1] (HL-60, Cell-MTS proliferation) is less than 0.5 µM; in experiment [2] (Raji, Cell-MTS proliferation) it was less than 0.5 µM; in experiment [3] (setting [5]), more than 5 µM; in experiment [4] (setting [6]), less than 0.5 µM.

As for `Cn1cc(-c2cc(S(C)(=O)=O)ccc2NC2CCOC2)c2ccccc2c1=O` (stereo not drawn) [Example 190, 2-methyl-4-[5-methylsulfonyl-2-(oxolan-3-ylamino)phenyl]isoquinolin-1-one], the half-maximal inhibitory concentration (IC50) in experiment [1] (HL-60, Cell-MTS proliferation) is 0.5 to 5 µM; in experiment [2] (Raji, Cell-MTS proliferation) it was 0.5 to 5 µM; in experiment [3] (setting [5]), more than 5 µM; in experiment [4] (setting [6]), less than 0.5 µM.

In the case of `Cc1cc(-c2cc(S(C)(=O)=O)ccc2OC2CCOCC2)cn(C)c1=O` [Example 420, 1,3-dimethyl-5-[5-methylsulfonyl-2-(oxan-4-yloxy)phenyl]pyridin-2-one], the IC50 is less than 0.5 µM in experiment [1] (setting [7]), 0.5 to 5 µM in experiment [2] (setting [8]), more than 5 µM in experiment [3] (setting [9]) and less than 0.5 µM in experiment [4] (setting [6]).

Take `CCS(=O)(=O)c1ccc(OCC2CC2)c(-c2cn(C)c(=O)c3ccccc23)c1` [Example 135, 4-[2-(cyclopropylmethoxy)-5-ethylsulfonylphenyl]-2-methylisoquinolin-1-one]: the IC50 in experiment [1] (setting [10]) was less than 0.5 µM; in experiment [2] (setting [11]) it was less than 0.5 µM; in experiment [3] (setting [12]), 0.5 to 5 µM; in experiment [4] (class symbols A/B/C) it was less than 0.5 µM.

As to `Cc1cc(=O)n(C)cc1-c1cc(NS(C)(=O)=O)ccc1Oc1ccc(F)cc1F` [Example 101, N-[4-(2,4-difluorophenoxy)-3-(1,4-dimethyl-6-oxopyridin-3-yl)phenyl]methanesulfonamide], the half-maximal inhibitory concentration (IC50) in experiment [1] (setting [10]) was less than 0.5 µM; in experiment [2] (setting [11]) it was less than 0.5 µM; in experiment [3] (setting [12]) it was more than 5 µM; in experiment [4] (class symbols A/B/C) it was less than 0.5 µM.

Turning to `CCS(=O)(=O)Nc1ncc(OCC2CC2)c(-c2cn(C)c(=O)c3c2CCCC3)n1` [Example 164, N-[5-(cyclopropylmethoxy)-4-(2-methyl-1-oxo-5,6,7,8-tetrahydroisoquinolin-4-yl)pyrimidin-2-yl]ethanesulfonamide], the concentration for half-maximal inhibition (IC50) in experiment [1] (HL-60, Cell-MTS proliferation) is 0.5 to 5 µM; in experiment [2] (Raji, Cell-MTS proliferation) it was less than 0.5 µM; in experiment [3] (setting [5]), more than 5 µM; in experiment [4] (setting [6]), less than 0.5 µM.

`CCS(=O)(=O)Nc1ccc(Oc2ccc(F)cc2F)c(-c2cc(OCC(F)(F)F)c(=O)n(C)c2)c1` [Example 290, N-[4-(2,4-difluorophenoxy)-3-[1-methyl-6-oxo-5-(2,2,2-trifluoroethoxy)pyridin-3-yl]phenyl]ethanesulfonamide]: the IC50 in experiment [1] (HL-60, Cell-MTS proliferation) was less than 0.5 µM; in experiment [2] (Raji, Cell-MTS proliferation), less than 0.5 µM; in experiment [3] (setting [5]) it was more than 5 µM; in experiment [4] (setting [6]) it was less than 0.5 µM.

As for `Cc1cccc(C)c1COc1cc(-c2cc(C)c(=O)n(C)c2)cc(S(C)(=O)=O)c1` [Example 331, 5-[3-[(2,6-dimethylphenyl)methoxy]-5-methylsulfonylphenyl]-1,3-dimethylpyridin-2-one], the 50% inhibitory concentration (IC50) in experiment [1] (HL-60, Cell-MTS proliferation) is less than 0.5 µM; in experiment [2] (Raji, Cell-MTS proliferation), 0.5 to 5 µM; in experiment [3] (setting [5]), more than 5 µM; in experiment [4] (setting [6]), less than 0.5 µM.

Regarding `Cn1cc(-c2cc(S(C)(=O)=O)ccc2NC2CCOCC2)c2ccccc2c1=O` [Example 191, 2-methyl-4-[5-methylsulfonyl-2-(oxan-4-ylamino)phenyl]isoquinolin-1-one], the IC50 is less than 0.5 µM in experiment [1] (HL-60, Cell-MTS proliferation); less than 0.5 µM in experiment [2] (Raji, Cell-MTS proliferation); more than 5 µM in experiment [3] (setting [5]); less than 0.5 µM in experiment [4] (setting [6]).

Turning to `Cn1cc(-c2cc(S(C)(=O)=O)ccc2OCC2CC2)cc(Oc2ccccc2)c1=O` [Example 295, 5-[2-(cyclopropylmethoxy)-5-methylsulfonylphenyl]-1-methyl-3-phenoxypyridin-2-one], the 50% inhibitory concentration (IC50) in experiment [1] (HL-60, Cell-MTS proliferation) was 0.5 to 5 µM; in experiment [2] (Raji, Cell-MTS proliferation), 0.5 to 5 µM; in experiment [3] (setting [5]), 0.5 to 5 µM; in experiment [4] (setting [6]), less than 0.5 µM.

For the compound `CCN(c1ncc(OCC2CC2)c(-c2cc(C)c(=O)n(C)c2)n1)S(C)(=O)=O` [Example 162, N-[5-(cyclopropylmethoxy)-4-(1,5-dimethyl-6-oxopyridin-3-yl)pyrimidin-2-yl]-N-ethylmethanesulfonamide], the IC50 is less than 0.5 µM in experiment [1] (HL-60, Cell-MTS proliferation); less than 0.5 µM in experiment [2] (Raji, Cell-MTS proliferation); more than 5 µM in experiment [3] (setting [5]); less than 0.5 µM in experiment [4] (setting [6]).

In the case of `CCS(=O)(=O)Cc1ccc(Oc2ccc(F)cc2F)c(-c2cn(C)c(=O)c3cncn23)c1` [Example 369, 5-[2-(2,4-difluorophenoxy)-5-(ethylsulfonylmethyl)phenyl]-7-methylimidazo[1,5-a]pyrazin-8-one], the concentration for half-maximal inhibition (IC50) in experiment [1] (HL-60, Cell-MTS proliferation) was less than 0.5 µM; in experiment [2] (Raji, Cell-MTS proliferation), 0.5 to 5 µM; in experiment [3] (setting [5]), more than 5 µM; in experiment [4] (setting [6]), less than 0.5 µM.

On to `CC(=O)Nc1ccc(S(C)(=O)=O)cc1-c1cn(C)c(=O)c2ccccc12` [Example 222, N-[2-(2-methyl-1-oxoisoquinolin-4-yl)-4-methylsulfonylphenyl]acetamide], for which the IC50 in experiment [1] (HL-60, Cell-MTS proliferation) is more than 5 µM; in experiment [2] (Raji, Cell-MTS proliferation) it was more than 5 µM; in experiment [3] (setting [5]) it was more than 5 µM; in experiment [4] (setting [6]), more than 5 µM.

In the case of `Cn1cc(-c2nc(S(C)(=O)=O)ccc2OCC2CC2)c2ccc(F)cc2c1=O` [Example 201, 4-[3-(cyclopropylmethoxy)-6-methylsulfonylpyridin-2-yl]-7-fluoro-2-methylisoquinolin-1-one], the IC50 was less than 0.5 µM in experiment [1] (HL-60, Cell-MTS proliferation); less than 0.5 µM in experiment [2] (Raji, Cell-MTS proliferation); more than 5 µM in experiment [3] (setting [5]); less than 0.5 µM in experiment [4] (setting [6]).

For the compound `Cc1cc(-c2cc(S(C)(=O)=O)ccc2OCC2CC2)cn(CC2CC2)c1=O` [Example 242, 5-[2-(cyclopropylmethoxy)-5-methylsulfonylphenyl]-1-(cyclopropylmethyl)-3-methylpyridin-2-one], the IC50 is less than 0.5 µM in experiment [1] (HL-60, Cell-MTS proliferation); 0.5 to 5 µM in experiment [2] (Raji, Cell-MTS proliferation); more than 5 µM in experiment [3] (setting [5]); less than 0.5 µM in experiment [4] (setting [6]).

As for `Cn1cc(-c2nc(NS(C)(=O)=O)ncc2Oc2ccc(F)cc2F)c2c(c1=O)CCCC2` [Example 172, N-[5-(2,4-difluorophenoxy)-4-(2-methyl-1-oxo-5,6,7,8-tetrahydroisoquinolin-4-yl)pyrimidin-2-yl]methanesulfonamide], the IC50 in experiment [1] (HL-60, Cell-MTS proliferation) is 0.5 to 5 µM; in experiment [2] (Raji, Cell-MTS proliferation) it was 0.5 to 5 µM; in experiment [3] (setting [5]), more than 5 µM; in experiment [4] (setting [6]), less than 0.5 µM.

On to `Cc1cc(-c2cc(OCCC3CC3)cc(S(C)(=O)=O)c2)cn(C)c1=O` [Example 327, 5-[3-(2-cyclopropylethoxy)-5-methylsulfonylphenyl]-1,3-dimethylpyridin-2-one], for which the 50% inhibitory concentration (IC50) in experiment [1] (HL-60, Cell-MTS proliferation) is 0.5 to 5 µM; in experiment [2] (Raji, Cell-MTS proliferation), 0.5 to 5 µM; in experiment [3] (setting [5]), more than 5 µM; in experiment [4] (setting [6]), less than 0.5 µM.

As for `Cc1nc2c(=O)n(C)cc(-c3cc(S(C)(=O)=O)ccc3OCC3CC3)c2o1` [Example 238, 7-[2-(cyclopropylmethoxy)-5-methylsulfonylphenyl]-2,5-dimethyl-[1,3]oxazolo[4,5-c]pyridin-4-one], the IC50 in experiment [1] (HL-60, Cell-MTS proliferation) is less than 0.5 µM; in experiment [2] (Raji, Cell-MTS proliferation) it was 0.5 to 5 µM; in experiment [3] (setting [5]), more than 5 µM; in experiment [4] (setting [6]) it was less than 0.5 µM.

For `CCS(=O)(=O)c1ccc(OCC#CC2CC2)c(-c2cc(OC)c(=O)n(C)c2)c1` [Example 391, 5-[2-(3-cyclopropylprop-2-ynoxy)-5-ethylsulfonylphenyl]-3-methoxy-1-methylpyridin-2-one], the IC50 in experiment [1] (setting [7]) is less than 0.5 µM; in experiment [2] (setting [8]), 0.5 to 5 µM; in experiment [3] (setting [9]), more than 5 µM; in experiment [4] (setting [6]), less than 0.5 µM.
